Measured values taken from US11643417B2, “Tetrahydrobenzofurodiazepinone compound and pharmaceutical use thereof” (priority 2020, dated 2023).
Like-named read-outs stand apart in the source and are kept apart here.

Molecular target: human Pim-1 (Homo sapiens (Human), UniProt P11309)
Assay: biochemical
Type: biochemical
Settings: Ki converted from IC50, purified human Pim-1, Pim2tide substrate, ADP-Glo
Method: The human Pim-1 inhibitory activity of the test compounds was evaluated as follows.
(1) Purification of Human Pim-1
DNA fragment in which a His-Tag sequence and a translation termination sequence are added to the 3′-end of human Pim-1 translation sequence was amplified by PCR (Polymerase Chain Reaction), using human Pim-1 gene-inserted plasmid DNA (Kazusa DNA Laboratory, model number FXC11400) as a template. The amplified DNA fragment was fused with pGEx-6P-1 (GE Healthcare Japan, model number 27-4597-1) digested with BamHI and EcoRI using In-Fusion HD Cloning Kit (Takara Bio, model number 639649). […] The base sequence of Pim-1 cloned into vector was determined by Dye Terminator method using BigDye Terminator v3.1 Cycle Sequencing Kit (Applied Biosystems, model number 4337456). […] Escherichia coli BL21 (DE3) (Merck KGaA, model number 69449-4) transformed with human Pim-1-expressed plasmid DNA was cultured in 2×YT medium (Becton Dickinson, model number 2404020) at 30° C., until the optical concentration at 620 nm (OD620) reached 0.6, and then cultured overnight at 20° C. in the presence of 0.5 mmol/L isopropyl b-D-1-thiogalactopyranoside. After the completion of so the culture, the cells were collected and suspended in Homogenate Buffer (50 mmol/L Tris-HCl (pH 7.5), 500 mmol/L NaCl, 1% Tween20, complete, EDTA-free (Roche, model number 1873580)), and the suspended cells were lysed by passing through a microfluidizer M-110H (Mizuho Kogyo Co., Ltd.). The lysate was centrifuged at 10,100×g for 10 minutes, 4° C., and the supernatant was filtered through MILLEX-HV Filter (0.45 μm) (Millipore, SLHV033RS) to remove the cell residues. The filtrate was loaded onto complete His-Tag Purification Resin (Roche Diagnostics, model number 05 893 682 0.01). The column was washed with Equilibration Buffer-1 (50 mmol/L Tris-HCl (pH 7.5), 500 mmol/L NaCl, 1% Tween 20) containing 5 mmol/L Imidazole, followed by Equilibration Buffer-1 containing 50 mmol/L Imidazole, the human Pim-1 to which GST-Tag derived from pGEx-6P-1 was eluted with Equilibration Buffer-1 containing 150 mmol/L imidazole. […] The protease reaction was carried out by stirring overnight at 4° C., and the human Pim-1 in which the GST-Tag sequence was cleaved was eluted. The eluate was loaded onto a gel filtration column (Superdex-200 […] (GE Healthcare, model number 17-5175-01)) equilibrated with Equilibration Buffer-3 (50 mmol/L Tris-HCl (pH 7.5), 500 mmol/L NaCl, 0.05% Tween20, 0.5 mmol/L EDTA, 2 mmol/L DTT, 10% Glycerol), and eluted. The eluate was used as a human Pim-1 purified fraction.
The protein concentration of the human Pim-1 purified fraction was measured with Pierce 660 nm Protein Assay Reagent (Thermo Fisher Scientific, model number 22660). The purified fraction was rapidly frozen in liquid nitrogen, and then stored at −80° C. The His-Tag-added human Pim-1 was detected by Western blotting using a mouse anti-His monoclonal antibody (WAKO, model number 011-23091).
(2) Evaluation of Human Pim-1 Inhibitory Activity
The calculation of the Pim-1 inhibitory activity of the compound was performed using the following solution according to the protocol attached to ADP-Glo Kinase Assay (cat. V9102, Promega). The purified enzyme of human Pim-1 described above was used.
(i) Preparation of Solution
The kinase buffer solution (50 mmol/L HEPES (pH 7.5), 5 mmol/L MgCl2, 1 mmol/L DTT, 0.05% BSA) was prepared by dissolving HEPES (Jena Bioscience), MgCl2 (Sigma-Aldrich), DTT (Sigma-Aldrich) and BSA (Sigma-Aldrich) in purified water.
The ATP solution (288 μmol/L) was prepared by dissolving 100 mmol/L ATP (Promega) in the kinase buffer solution.

Sequence of human Pim-1 (P11309 whole entry): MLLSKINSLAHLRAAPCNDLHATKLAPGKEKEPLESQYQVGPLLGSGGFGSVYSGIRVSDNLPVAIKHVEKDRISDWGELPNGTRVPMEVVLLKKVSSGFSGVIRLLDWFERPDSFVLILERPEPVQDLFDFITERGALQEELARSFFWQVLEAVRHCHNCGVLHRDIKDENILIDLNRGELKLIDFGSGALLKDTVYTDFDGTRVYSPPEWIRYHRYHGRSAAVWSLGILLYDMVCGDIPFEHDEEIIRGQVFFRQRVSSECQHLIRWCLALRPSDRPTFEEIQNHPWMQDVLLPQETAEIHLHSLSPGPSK

SMILES | Ki (read-out: hPim1 Ki) | Ki (hPim1 Ki (nM))
O=C1NCCN(CC(F)(F)C2CC(O)(CO)CCO2)c2c1oc1ccc(C(F)(F)F)cc21 (stereo not drawn) [Example 13] | 0.021 nM | –
O=C1NCCN(CCC2COCC(CF)O2)c2c1oc1ccc(C(F)(F)F)cc21 (racemic) [Example 134] | 0.753 nM | –
CC(C)(O)C1CCC(CCN2CCNC(=O)c3oc4ccc(C(F)(F)F)cc4c32)CC1 (stereo not drawn) [Example 98] | 1.07 nM | –
O=C1NCCN(CCC2CC(O)CCO2)c2c1oc1ccc(C(F)(F)F)cc21 (stereo not drawn) [Example 1] | 0.697 nM | –
CC1(O)CCOC(C(F)(F)CN2CCNC(=O)c3oc4ccc(C(F)(F)F)cc4c32)C1 (stereo not drawn) [Example 58, 1-(2,2-difluoro-2-(4-hydroxy-4-methyltetrahydro-2H-pyran-2-yl)ethyl)-9-(trifluoromethyl)-1,2,3,4-tetrahydro-5H-benzofuro[3,2-e][1,4]diazepin-5-one] | 0.0167 nM | –
O=C1NCCN(CC(F)(F)C2CC(O)(C(F)F)CCO2)c2c1oc1ccc(C(F)(F)F)cc21 (single isomer, unassigned) [Example 52] | 0.104 nM | –
O=C(OC[C@@H]1CO[C@H](CCN2CCNC(=O)c3oc4ccc(C(F)(F)F)cc4c32)CO1)c1ccccc1 [Example 69] | 18.5 nM | –
O=C1NCCN(CC[C@H]2CO[C@H](CO)CO2)c2c1oc1ccc(C(F)(F)F)cc21 [Example 41] | 0.933 nM | –
CC1COCC(CCN2CCNC(=O)c3oc4ccc(C(F)(F)F)cc4c32)O1 (racemic) [Example 115] | 0.672 nM | –
O=C1NC2(CC2)CN(CCC2CCC(O)(CO)CC2)c2c1oc1ccc(C(F)(F)F)cc21 (stereo not drawn) [Example 116] | – | 0.0092 nM
N#CCC1(O)CCC(CCN2CCNC(=O)c3oc4ccc(C(F)(F)F)cc4c32)CC1 (stereo not drawn) [Example 121] | 0.705 nM | –
O=C1NCCN(CCC2CC(O)CCC2(F)F)c2c1oc1ccc(C(F)(F)F)cc21 (stereo not drawn) [Example 38] | 0.189 nM | –
O=C1NCCN(CC(F)(F)[C@H]2CO[C@@H](CO)CO2)c2c1oc1ccc(C(F)(F)F)cc21 [Example 96] | 0.0283 nM | –
O=C1NCCN(CC(F)(F)C2CC(O)(C(F)(F)F)CCO2)c2c1oc1ccc(C(F)(F)F)cc21 (stereo not drawn) [Example 19] | 0.101 nM | –
O=C1OC[C@]2(CC[C@H](CCN3CCNC(=O)c4oc5ccc(C(F)(F)F)cc5c43)CC2)O1 [Example 2-02] | 0.43 nM | –
O=C1NC2(CC2)CN(CC[C@H]2CO[C@@H](CO)CO2)c2c1oc1ccc(C(F)(F)F)cc21 [Example 154] | 0.302 nM | –
O=C1NCCN(CC[C@H]2CC[C@@](O)(C(F)(F)F)CC2)c2c1oc1ccc(C(F)(F)F)cc21 [Example 84] | 0.236 nM | –
CS(=O)(=O)C[C@H]1CO[C@H](CCN2CCNC(=O)c3oc4ccc(C(F)(F)F)cc4c32)CO1 (racemic) [Example 130] | 1.16 nM | –
N#CC1CCOC(CCN2CCNC(=O)c3oc4ccc(C(F)(F)F)cc4c32)C1 (stereo not drawn) [Example 2] | 1.12 nM | –
CC1(O)CCOC(C(F)(F)CN2CCNC(=O)c3oc4ccc(C(F)(F)F)cc4c32)C1 (racemic) [Example 11, 1-(2,2-difluoro-2-(4-hydroxy-4-methyltetrahydro-2H-pyran-2-yl)ethyl)-9-(trifluoromethyl)-1,2,3,4-tetrahydro-5H-benzofuro[3,2-e][1,4]diazepin-5-one] | – | 0.0596 nM
C[C@@H]1CO[C@H](CCN2CCNC(=O)c3oc4ccc(C(F)(F)F)cc4c32)CO1 [Example 64] | 0.263 nM | –
COC(C1CC(O)(CO)C1)C1(CN2CCNC(=O)c3oc4ccc(C(F)(F)F)cc4c32)CC1 (racemic) [Example 22] | 0.848 nM | –
CS(=O)(=O)CC1COCC(CCN2CCNC(=O)c3oc4ccc(C(F)(F)F)cc4c32)O1 (racemic) [Example 136] | 16 nM | –
O=C1NCCN(CCC2COCC(CO)O2)c2c1oc1ccc(C(F)(F)F)cc21 (racemic) [Example 133] | 1.58 nM | –

SMILES | Ki (read-out: hPim1 Ki) | Ki (hPim1 Ki (nM))
CC1(C)OC[C@]2(CC[C@H](CCN3CCNC(=O)c4oc5ccc(C(F)(F)F)cc5c43)CC2)O1 [Example 2-01] | 1.6 nM | –
C[C@H]1CN(CC[C@H]2CC[C@](O)(CO)CC2)c2c(oc3ccc(C(F)(F)F)cc23)C(=O)N1 [Example 2-06] | 0.074 nM | –
C[C@H]1CO[C@@H](CCN2CCNC(=O)c3oc4ccc(C(F)(F)F)cc4c32)CO1 [Example 43] | 0.741 nM | –
O=C1NC2(CC2)CN(CC[C@H]2CO[C@H](CO)CO2)c2c1oc1ccc(C(F)(F)F)cc21 [Example 155] | 0.221 nM | –
O=C1NCCN(CCC2CCC(CO)(CO)CC2)c2c1oc1ccc(C(F)(F)F)cc21 [Example 146] | 0.0231 nM | –
O=C1NCCN(CC[C@H]2CC[C@@](O)(CCO)CC2)c2c1oc1ccc(C(F)(F)F)cc21 [Example 109] | 0.193 nM | –
N#CCC1COCC(CCN2CCNC(=O)c3oc4ccc(C(F)(F)F)cc4c32)O1 (racemic) [Example 140] | 5.8 nM | –
O=C1NC2(CC2)CN(CCC2CCC(O)CC2)c2c1oc1ccc(C(F)(F)F)cc21 (stereo not drawn) [Example 126] | 0.464 nM | –
O=C1NC2(CC2)CN(CC(F)(F)C2CCS(=O)(=O)CC2)c2c1oc1ccc(C(F)(F)F)cc21 [Example 160] | 0.0982 nM | –
O=C1NCCN(CC(F)(F)C2CC(CO)CCO2)c2c1oc1ccc(C(F)(F)F)cc21 (single isomer, unassigned) [Example 14] | – | 0.0334 nM
[2H]C1(O)CCC(CCN2CCNC(=O)c3oc4ccc(C(F)(F)F)cc4c32)CC1 (stereo not drawn) [Example 92] | – | 0.707 nM
CC1(C(=O)O)CCC(CCN2CCNC(=O)c3oc4ccc(C(F)(F)F)cc4c32)CC1 (stereo not drawn) [Example 93] | 5.15 nM | –
O=C1NCCN(CC(F)(F)C2CCC(CO)CC2)c2c1oc1ccc(C(F)(F)F)cc21 (stereo not drawn) [Example 138] | 0.0151 nM | –
O=C1NCCN(CC(F)(F)C2CC(O)C2)c2c1oc1ccc(C(F)(F)F)cc21 (stereo not drawn) [Example 151] | 0.957 nM | –
CS(=O)(=O)C1CCC(CCN2CCNC(=O)c3oc4ccc(C(F)(F)F)cc4c32)CC1 (stereo not drawn) [Example 123] | 0.784 nM | –
O=C1NCCN(CC(F)(F)[C@@H]2CO[C@@H](CO)CO2)c2c1oc1ccc(C(F)(F)F)cc21 [Example 77, 1-(2,2-difluoro-2-((2S,5S)-5-(hydroxymethyl)-1,4-dioxan-2-yl)ethyl)-9-(trifluoromethyl)-1,2,3,4-tetrahydro-5H-benzofuro[3,2-e][1,4]diazepin-5-one] | 0.0438 nM | –
O=C1NCCN(CC(F)(F)C2CC3(CCO2)OCCO3)c2c1oc1ccc(C(F)(F)F)cc21 (racemic) [Example 46] | 0.0715 nM | –
O=C1NCCN(CCC2CCC(C3(O)CC3)CC2)c2c1oc1ccc(C(F)(F)F)cc21 (stereo not drawn) [Example 99] | – | 0.0764 nM
O=C1NCCN(CCC23CC(CO)(C2)C3)c2c1oc1ccc(C(F)(F)F)cc21 [Example 113] | 0.726 nM | –
COC[C@]1(OC)CC[C@@H](CCN2CCNC(=O)c3oc4ccc(C(F)(F)F)cc4c32)CC1 [Example 2-04] | 1.25 nM | –
O=C1NCCN(CCC2COCC(CO)O2)c2c1oc1ccc(C(F)(F)F)cc21 (racemic) [Example 132] | 3.59 nM | –
C[C@@H]1CN(CC[C@H]2CC[C@](O)(CO)CC2)c2c(oc3ccc(C(F)(F)F)cc23)C(=O)N1 [Example 2-07] | 0.136 nM | –
O=C1NCCN(CCC2CCCCO2)c2c1oc1ccc(C(F)(F)F)cc21 (stereo not drawn) [Example 40] | 0.969 nM | –
CC1(O)CCOC(C(F)(F)CN2CCNC(=O)c3oc4ccc(C(F)(F)F)cc4c32)C1 (racemic) [Example 12, 1-(2,2-difluoro-2-(4-hydroxy-4-methyltetrahydro-2H-pyran-2-yl)ethyl)-9-(trifluoromethyl)-1,2,3,4-tetrahydro-5H-benzofuro[3,2-e][1,4]diazepin-5-one] | – | 0.0388 nM
